Here are results for 34 compounds from US8754073B2, “Substituted piperazino-dihydrothienopyrimidines” (Boehringer Ingelheim International GmbH, priority 2007, dated 2014).

Where a name gives a salt, the structure may show the parent alone.

The target in the first assay is PDE4B (Homo sapiens, UniProt Q07343). Put plainly: Scintillation Proximity Assay (SPA) of PDE4B enzyme activity ([H3]-cAMP cleavage). It is filed as biochemical. As to conditions: test substance 1 μM; one-hour incubation of [H3]-cAMP with PDE4B enzyme at 30° C. The procedure, abridged: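 SPA read-out: [H3]-cAMP incubated with PDE4B in assay buffer for 1 h at 30 °C, with and without test compound at 1 μM. Reaction stopped by adding yttrium silicate beads that bind the [H3]-AMP product; after 45 min settling, scintillation counted. Value is % inhibition at 1 μM.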
Chain of PDE4B (Q07343 whole entry, species assumed): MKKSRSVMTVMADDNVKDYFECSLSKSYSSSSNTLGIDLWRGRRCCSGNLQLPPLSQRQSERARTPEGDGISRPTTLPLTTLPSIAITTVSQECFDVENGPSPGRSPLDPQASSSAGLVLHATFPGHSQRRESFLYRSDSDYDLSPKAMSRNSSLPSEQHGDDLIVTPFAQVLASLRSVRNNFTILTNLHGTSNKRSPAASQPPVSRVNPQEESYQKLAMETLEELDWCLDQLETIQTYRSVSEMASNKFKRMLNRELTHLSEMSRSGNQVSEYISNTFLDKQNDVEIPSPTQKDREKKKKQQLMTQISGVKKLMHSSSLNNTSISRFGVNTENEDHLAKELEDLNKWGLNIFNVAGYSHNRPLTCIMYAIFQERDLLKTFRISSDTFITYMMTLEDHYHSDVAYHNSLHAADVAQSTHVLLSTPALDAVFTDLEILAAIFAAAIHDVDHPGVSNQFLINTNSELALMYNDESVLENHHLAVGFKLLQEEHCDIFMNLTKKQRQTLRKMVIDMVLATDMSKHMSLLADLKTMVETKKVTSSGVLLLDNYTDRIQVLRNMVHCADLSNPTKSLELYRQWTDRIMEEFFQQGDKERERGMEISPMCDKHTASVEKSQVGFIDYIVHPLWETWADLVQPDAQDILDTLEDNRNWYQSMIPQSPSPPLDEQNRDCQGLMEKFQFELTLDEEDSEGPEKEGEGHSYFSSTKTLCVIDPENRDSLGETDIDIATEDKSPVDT
Background: Scintillation proximity formats need no separation of bound from free tracer.
As usually defined, the inhibition is the share of the control response that was lost under treatment. `CN1C[C@@H](Nc2nc(N3CCC(c4noc5ccccc45)CC3)nc3c2[S+]([O-])CC3)CCC1=O` (stereo partly shown) [Example 45] had an inhibition at 1 µM of 97%. Take `COC(=O)c1ccc(C2CCN(c3nc4c(c(NC5(CO)CC5)n3)[S+]([O-])CC4)CC2)cc1` (stereo not shown) [Example 103]: testing at 1 µM gave an inhibition of 95%. On the same count and under the same terms, to `[O-][S+]1CCc2nc(N3CCC4(CC3)OCc3ccccc34)nc(Nc3cccc(F)c3)c21` (stereo not shown) [Example 140] belongs 83%. On the same count and under the same terms, to `N#Cc1cccc(C2CCN(c3nc4c(c(NC5CCOCC5)n3)[S+]([O-])CC4)CC2)c1` (stereo not shown) [Example 123] belongs 94%. With `[O-][S+]1CCc2nc(N3CCC(c4nnc(-c5ccc(F)cc5)o4)CC3)nc(Nc3cccc(F)c3)c21` (stereo not shown) [Example 143], the inhibition at 1 µM amounted to 95%. Compound `[O-][S+]1CCc2nc(N3CCC(c4noc5ccc(F)cc45)CC3)nc(NC3(CO)CC3)c21` (stereo not shown) [Example 106] yielded an inhibition at 1 µM of 95%. On the same count and under the same terms, to `[O-][S+]1CCc2nc(N3CCC(c4noc5ccccc45)CC3)nc(NC3CCOCC3)c21` (stereo not shown) [Example 60] belongs 97%; to `Cc1noc(C2CCN(c3nc4c(c(N[C@H]5CCC(=O)N(C)C5)n3)[S+]([O-])CC4)CC2)n1` (stereo partly shown) [Example 53], 96%; to `Cc1noc(C2CCN(c3nc4c(c(Nc5cccc(F)c5)n3)[S+]([O-])CC4)CC2)n1` (stereo not shown) [Example 83], 96%. Same read-out and setting: to `[O-][S+]1CCc2nc(N3CCC(c4noc5ccc(F)cc45)CC3)nc(NC3CCOCC3)c21` (stereo not shown) [Example 122] belongs 96%; to `CC(C)[C@H](CO)Nc1nc(N2CCC(c3cc(-c4ccco4)n[nH]3)CC2)nc2c1[S+]([O-])CC2` (stereo partly drawn) [Example 161, (R)-2-{2-[4-(5-Furan-2-Yl-2H-Pyrazol-3-Yl)-Piperidin-1-Yl]-5-Oxo-6,7-Dihydro-5H-5λ^4-Thieno[3,2-d]Pyrimidin-4-Ylamino}-3-Methylbutan-1-Ol Trifluoroacetate], 94%; to `[O-][S+]1CCc2nc(N3CCC(c4ccncc4)CC3)nc(Nc3cccc(F)c3)c21` (stereo not shown) [Example 78, (3-Fluorophenyl)-[5-Oxo-2-(3.4.5.6-Tetrahydro-2H-[4,4′]Bipyridinyl-1-Yl)-6,7-Dihydro-5H-5λ^4-Thieno[3,2-d]Pyrimidin-4-Yl]-Amine Trifluoroacetate], 96%. On the same count and under the same terms, the result for `[O-][S+]1CCc2nc(N3CCC(c4ccc5ccccc5c4)CC3)nc(NC3CCOCC3)c21` (stereo not shown) [Example 127] reads 96%; that for `CC(C)[C@H](CO)Nc1nc(N2CCC(c3ccncc3)CC2)nc2c1[S+]([O-])CC2` (stereo partly drawn) [Example 19, (R)-3-Methyl-2-[5-Oxo-2-(3.4.5.6-Tetrahydro-2H-[4,4′]Bipyridinyl-1-Yl)-6,7-Dihydro-5H-5λ^4-Thieno[3,2-d]Pyrimidin-4-Ylamino]-Butan-1-Ol], 83%; that for `CC(C)c1noc(C2CCN(c3nc4c(c(NC5CCOCC5)n3)[S+]([O-])CC4)CC2)n1` (stereo not shown) [Example 129], 93%. For `[O-][S+]1CCc2nc(N3CCC(O)(c4cc(F)cc(F)c4)CC3)nc(NC3CCOCC3)c21` (stereo not shown) [Example 62], the inhibition at 1 µM amounted to 96%. `COC(=O)c1cccc(C2CCN(c3nc4c(c(Nc5cccc(F)c5)n3)[S+]([O-])CC4)CC2)c1` (stereo not shown) [Example 135] registered an inhibition at 1 µM of 96%.

In turn, `[O-][S+]1CCc2nc(N3CCC(c4c[nH]c5ccccc45)CC3)nc(Nc3cccc(F)c3)c21` (stereo not shown) [Example 71] yielded an inhibition at 1 µM of 96%. Still for that read-out and setting: the result for `[O-][S+]1CCc2nc(N3CCC(c4ccc(F)cc4F)CC3)nc(NC3(CO)CC3)c21` (stereo not shown) [Example 89, (1-{2-[4-(2,4-Difluorophenyl)-Piperidin-1-Yl]-5-Oxo-6,7-Dihydro-5H-5λ^4-Thieno[3,2-d]Pyrimidin-4-Ylamino}-Cyclopropyl)-Methanol] reads 93%; that for `[O-][S+]1CCc2nc(N3CCC(c4cccc(F)c4)CC3)nc(NC3(CO)CC3)c21` (stereo not shown) [Example 9], 95%.

Staying with this assay, now noted: test substance 1 μM; one-hour incubation with [H3]-cAMP at 30° C.
Compound `Cc1oc(C2CCN(c3nc4c(c(NC5(CO)CC5)n3)[S+]([O-])CC4)CC2)nc1-c1ccccc1` (stereo not shown) [Example 277] had an inhibition at 1 µM of 96%. In turn, `O=C(c1ccc(F)cc1)C1(c2ccc(F)cc2)CCN(c2nc3c(c(NC4CCOCC4)n2)[S+]([O-])CC3)CC1` (stereo not shown) [Example 297] showed an inhibition at 1 µM of 73%.

`[O-][S+]1CCc2nc(N3CCC(c4cc(-c5cccs5)[nH]n4)CC3)nc(Nc3cccc(F)c3)c21` (stereo not shown) [Example 287] yielded an inhibition at 1 µM of 89%. With `[O-][S+]1CCc2nc(N3CCC(OCc4ccccc4)CC3)nc(NC3CCOCC3)c21` (stereo not shown) [Example 172], testing at 1 µM gave an inhibition of 91%.

On to `CCN1CCc2ccc(OC3CCN(c4nc5c(c(NC6CCOCC6)n4)[S+]([O-])CC5)CC3)cc2CC1` (stereo not shown) [Example 234], for which 1 µM produced 95% inhibition.

As to `[O-][S+]1CCc2nc(N3CCC(c4n[nH]c5ccccc45)CC3)nc(NC3(CO)CC3)c21` (stereo not shown) [Example 220], the inhibition at 1 µM was 93%. On the same count and under the same terms, the result for `CN(C(=O)c1ccc(C2CCN(c3nc4c(c(NC5CCOCC5)n3)[S+]([O-])CC4)CC2)cc1)C1CC1` (stereo not shown) [Example 229, N-cyclopropyl-N-methyl-4-{1-[5-oxo-4-(tetrahydropyran-4-ylamino)-6,7-dihydro-5H-5λ^4-thieno[3,2-d]pyrimidin-2-yl]-piperidin-4-yl}-benzamide] reads 94%; that for `CC(C)c1ccccc1OC1CCN(c2nc3c(c(N[C@H]4CCC(=O)N(C)C4)n2)[S+]([O-])CC3)CC1` (stereo partly shown) [Example 266], 95%. On the same count and under the same terms, to `CC(C)c1ccccc1OC1CCN(c2nc3c(c(NC4CCOCC4)n2)[S+]([O-])CC3)CC1` (stereo not shown) [Example 272] belongs 95%; to `O=C(c1cccc(C2CCN(c3nc4c(c(NC5CCOCC5)n3)[S+]([O-])CC4)CC2)c1)N(C1CCOCC1)C1CC1` (stereo not shown) [Example 257], 94%; to `COCC1(c2ccc(Cl)cc2)CCN(c2nc3c(c(NC4CCOCC4)n2)[S+]([O-])CC3)CC1` (stereo not shown) [Example 302], 91%.

With `N#Cc1ccc(OC2CCN(c3nc4c(c(NC5(CO)CC5)n3)[S+]([O-])CC4)CC2)cc1` (stereo not shown) [Example 322], the inhibition at 1 µM amounted to 91%. Same read-out and setting: the result for `[O-][S+]1CCc2nc(N3CCC(Oc4ccc(Cl)c(Cl)c4)CC3)nc(NC3CCOCC3)c21` (stereo not shown) [Example 181] reads 92%. Same read-out and setting: to `[O-][S+]1CCc2nc(N3CCC(OCc4ccccc4)(c4ccc(Cl)cc4)CC3)nc(NC3CCOCC3)c21` (stereo not shown) [Example 319] belongs 91%.
